Measured values as given in patent US12527766B2, “Methods of treating acute coronary syndrome using 3,3′-diindolylmethane” (Boulder BioScience LLC, priority 2020, dated 2026).
Where a name gives a salt, the structure may show the parent alone.

Tests used:
[1] = system: human neutrophils; assay: Sytox Orange extracellular DNA release (NET) assay; assay type: cell-based
Description: (§1) Neutrophil isolation: Neutrophils were isolated from the peripheral blood of healthy donors, under a protocol approved by an institutional ethics committee. All subjects gave written informed consent in accordance with the Declaration of Helsinki. Briefly, whole blood was collected using an anticoagulant (sodium citrate), and isolated as previously described using a Percoll gradient separation of neutrophils from other leukocytes (Modulation of multiple neutrophil functions by preparative methods or trace concentrations of bacterial lipopolysaccharide. Haslett C, et al. Am J Pathol. 1985 April; 119(1): 101-10). Neutrophils were suspended in RPMI, 2% heat-inactivated human plasma, and 10 mM HEPES, pH7.5 (complete RPMI) to a neutrophil specific concentration of 2.2×10^6 neutrophils/ml.
First Neutrophil Extracellular Trap (NET) indicating assay: A Sytox Orange extracellular DNA release assay was utilized. For the experiments using DIM from self-emulsifying SMEDDS BR-9001 (i.e., Example 1), purified human neutrophils (2×10^5 per sample) in complete RPMI were allowed to settle in 24-well plates in the presence of DIM from self-emulsifying DIM formulation SMEDDS—BR-9001 (12% DIM) providing experimental DIM concentrations of 1, 3, 10, and 30 μM. Control wells received SMEDDS excipient vehicle mixture alone (diluted to provide excipient mixture concentrations equivalent to excipients present in the 3 and 30 μM DIM experimental wells). Neutrophils (2×10^5 per well) were plated in a black-walled 96-well plate and allowed to settle in the presence of DIM from BR-9001 or excipient vehicle control for 30 min. After 30 minutes neutrophils in wells were stimulated with recombinant fusion protein (F Protein (1 μg/ml, Sino Biologicals) or phenolextracted lipopolysaccharide (LPS; 10 μg/ml; List Biologicals). and 5 μM Sytox Orange (Thermo Fisher) was added and gently mixed. The plate was placed in a prewarmed (37° C.) fluorescence plate reader (BioTek FLX-800) and fluorescence read at excitation/emission of 540/600 every 10 minutes over 4 hours. Following this, 1% saponin was added to lyse neutrophils to provide 100% DNA release for experiments presented in FIGS. 1A and 1B. This allowed results to be presented as proportion of total DNA in these experiments. Otherwise results are reported as relative fluorescent units (FIGS. 3A and 3B). The kinetics or 4-hour results were reported as described (Sec FIGS. 1A and 1B and FIG. 3A).
A second set of experiments were performed using crystalline DIM solubilized in DMSO prior to addition to culture wells. […] The plate was placed in a prewarmed (37° C.) fluorescence plate reader and fluorescence read as above every 10 minutes over 4 hours. […]

[2] = system: human neutrophils; assay: Fluorescent imaging of extracellular DNA (Sytox Orange microscopy); assay type: cell-based
Description: as §1
Fluorescent imaging of extracellular DNA for photo-micrograph data: Neutrophils (5×10^5 per well) were spotted on a glass microscope chamber slide (Ibidi) and cells were stimulated for 4 hours as indicated above with F Protein or LPS, at 37° C. in a humidified chamber, and stained with 0.2 μM Sytox Orange for the final 10 minutes. The slides were fixed in 2% formaldehyde (Sigma) for 10 min at room temperature and imaged.

[3] = system: carotid artery thromboses; assay: FeCl3 carotid artery thrombosis in mice, H&E fibrin content; assay type: in vivo, mice (C57BL6/J); settings: DIM treated animals (oral and IV groups)
Description: Animals: All mice were of C57BL6/J background. Specific pathogen-free mice were obtained from Envigo, USA. All mice used for experiments were between 11 and 14 weeks old. Each experimental group was weight and sex-matched so that experiments were carried out on male and female mice with similar weight and in equal sex distribution between groups. All procedures were performed on anaesthetized animals using a uniform technique of inhaled Isoflurane combined with supplemental parenteral agents. Animals were sacrificed under deep anesthesia. All animal experiments were carried out according to the guidelines from the Guide for Care and Use of Laboratory Animals and The Public Health Service (PHS) Policy on Humane Care and Use of Laboratory Animals. All experimental procedures performed on animals met the requirements of the Guide for the protection of animals used for scientific purposes. Induction of arterial thrombosis after Ferric Chloride exposure: For thrombus induction in the distal carotid artery in vivo, local application of FeCl3 was used following an established method (Wang et al, 2005, supra). In brief, mice were anesthetized using 2-3% inhaled isoflurane, shifting to lower dose maintenance isoflurane and supplemented with a fixed combination of intra-peritoneal buprenorphine, midazolam and dexmedetomidine. […]

[4] = following oral administration; cited from earlier work
[5] = cited from earlier work; for Log P: table of second active agents; for Log P of Second Active Agent: co-formulation table
[6] = in vivo and in vitro; cited from earlier work

c1ccc2c(Cc3c[nH]c4ccccc34)c[nH]c2c1 [DIM, 3,3′-diindolylmethane]
delay in DNA release versus absence of DIM ([1]; F protein and LPS stimulated neutrophils): about 1 hours | IC50 ([1]; Homo sapiens, Neutrophil, free DIM (crystalline, in DMSO), read-out: estimated IC50, inhibition of DNA release): 3 to 30 µM | effect on DNA release (Sytox Orange) ([1]; free DIM in DMSO 1, 3, 10, 30 μM, F Protein 1 μg/ml): dose-dependent inhibitory effect | spontaneous DNA release ([1]; non-stimulated neutrophils): did not inhibit | extracellular DNA positive cells (microscopy) ([2]; 3 μM to 30 μM DIM): dose response | visualization of extracellular DNA (microscopy) ([2]; API (free) DIM, F Protein and LPS, 4 h): inhibited visualization of extracellular DNA | thrombus composition (H&E) versus Vehicle Control [3]: less compact thrombi, primarily composed of red cells (RBCs), with a minimum of fibrin and lower presence of leukocytes | tissue distribution [4]: concentrates in brain tissue

COC(=O)/C=C/C(=O)OC [Dimethyl Fumarate, Dimethyl fumarate]
Log P [5]: Log P - 0.62

O=c1c2ccccc2[se]n1-c1ccccc1 [Ebselen]
Log P [5]: Log P - 2.65

CCCCCCCCc1ccc(CCC(N)(CO)CO)cc1 [Fingolimod]
Log P of Second Active Agent [5]: 5.25 | Log P [5]: Log P - 5.25

CCCSc1nc(N[C@@H]2C[C@H]2c2ccc(F)c(F)c2)c2nnn([C@@H]3C[C@H](OCCO)[C@@H](O)[C@H]3O)c2n1 [Ticagrelor]
Log P of Second Active Agent [5]: 1.90 | Log P [5]: Log P - 1.90

OCc1c[nH]c2ccccc12 [indole-3-carbinol, 1H-indol-3-ylmethanol]
conversion products [6]: converts to DIM and LTR

Anakinra: recombinant and slightly modified version of the human interleukin 1 receptor antagonist protein
Log P [5]: Log P - 2.69
